This is an account of results in US12195482B1 (Arcus Biosciences, Inc., priority 2022, dated 2025).

For orientation: pIC50 means the negative decadic logarithm of the IC50, by convention in mol/L. Read a high pIC50 as a low IC50.

One test deals with T1, p-AXL (Homo sapiens, UniProt P30530).
T1 construct: expressed in transfected cells; host or cells: HEK293T
T1 sequence (P30530 26-894): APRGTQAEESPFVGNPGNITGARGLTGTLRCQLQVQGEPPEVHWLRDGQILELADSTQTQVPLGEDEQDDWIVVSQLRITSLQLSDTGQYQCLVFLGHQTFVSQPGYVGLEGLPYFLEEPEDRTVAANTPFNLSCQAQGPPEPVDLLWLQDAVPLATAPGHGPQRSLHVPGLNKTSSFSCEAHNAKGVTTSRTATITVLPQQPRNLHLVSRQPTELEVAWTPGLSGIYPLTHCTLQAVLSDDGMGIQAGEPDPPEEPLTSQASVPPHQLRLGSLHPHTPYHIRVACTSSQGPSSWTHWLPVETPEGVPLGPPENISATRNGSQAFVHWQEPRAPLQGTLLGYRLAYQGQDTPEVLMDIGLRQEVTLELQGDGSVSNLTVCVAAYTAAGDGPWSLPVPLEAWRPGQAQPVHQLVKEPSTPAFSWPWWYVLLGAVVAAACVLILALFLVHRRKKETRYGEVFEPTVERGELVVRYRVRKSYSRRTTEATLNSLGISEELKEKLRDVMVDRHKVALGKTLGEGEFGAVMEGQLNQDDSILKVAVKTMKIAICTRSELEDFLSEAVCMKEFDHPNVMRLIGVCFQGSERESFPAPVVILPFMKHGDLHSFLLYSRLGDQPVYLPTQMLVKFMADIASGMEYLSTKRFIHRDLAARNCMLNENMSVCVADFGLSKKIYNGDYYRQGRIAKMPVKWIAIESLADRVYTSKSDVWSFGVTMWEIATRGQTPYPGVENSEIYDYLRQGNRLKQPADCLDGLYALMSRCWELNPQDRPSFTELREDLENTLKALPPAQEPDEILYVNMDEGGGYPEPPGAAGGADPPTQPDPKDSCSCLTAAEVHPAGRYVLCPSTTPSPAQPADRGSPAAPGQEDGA
Kind of test: Axl phosphorylation inhibition ELISA in HEK293T cells transfected with NanoLuc-tagged AXL. The test is classed as cell-based. The settings on record: 1 h compound incubation, media (OptiMEM). On the procedure: [formula] Measurement of Axl Phosphorylation Inhibition
The dose-response assays were performed in S-Bio PrimeSurface® 3D culture: Ultra-low Attachment Plates: 384 well, U bottom (#MS-9384UZ) containing 400 nL of 22 serial 2-fold compound dilutions using Bravo and Echo. ELISA assay was performed on Pierce™ streptavidin coated high capacity 384-well white plates (Thermofisher Cat #15505). The plates were coated overnight at 4° C. with 50 μl/well of biotinlyated phospho-tyrosine mouse mAb (Cell Signaling Technology, 9417s).
HEK293T cells were grown in DMEM containing 10% FBS, 1% Pen/Strep, 1% G-Max. A day before the assay, cells were transiently transfected with 6.8 μg of NanoLuc-tagged AXL plasmid DNA and 8 μg of carrier DNA using FuGENE® HD Transfection Reagent (Promega) according to manufacturer's instructions. On the day of the assay, transfected cells were harvested and resuspended in OptiMEM. 70,000 cells/well were added to the compounds containing assay plates. After a gentle mix and a short spin, the plates were incubated at 37° C. After 1 h, the cells were lysed followed by a brief centrifugation and 30 min of shaking at 300 rpm. Meanwhile, the antibody coated plates were brought to room temperature and then were washed ten times in PBS with 0.05% Tween 20 (ELISA-wash buffer). 50 μl/well of cell lysate was transferred to the ELISA plates and shaken for 2 hours. After washing again with the ELISA wash buffer, the samples were diluted with 25 μl of PBS. The captured NanoLuc tagged p-AXL was detected using Nano-Glo® Luciferase Assay System (Promega) and manufacturer's instruction. The luminescence signal was measured using Envision plate reader. IC50 values were determined by fitting the data to a standard 4-parameter logistic equation.
A general note: In an ELISA, binding on a coated surface is turned into a signal by an enzyme label.

Another test deals with T2, Axl (Homo sapiens, UniProt P30530).
T2 sequence (P30530 26-894): T1 sequence (P30530 26-894)
Kind of test: Biochemical potency, HTRF KinEASE-TK kinase assay. Also on record: purchased Invitrogen. To be noted: 5 nM AXL, 700 μM ATP. As for the experimental part:
Measurement of Biochemical Compound Potency of Axl Inhibitors
Purified recombinant human AXL, TYRO3 and MER proteins were purchased from Invitrogen™. 10 nM AXL, 2 nM TYRO3 or MER were incubated with varying concentrations of compounds in 50 mM HEPES, pH 7.4, 10 mM MgCl2, 0.01% BSA, 1 mM DTT and 2% DMSO in a total volume of 20 μl in a 384-well microplate (Corning™ #3640) at RT for 1 h. The AXL, TYRO3 and MER enzymatic reaction was initiated by transferring 10 μl of enzyme and compound mixture into 10 μl of 1.6 μM TK Substrate-biotin (HTRF® KinEASE-TK kit, Cisbio) and 1400 μM ATP pre-incubated in 50 mM HEPES, pH 7.4, 10 mM MgCl2, 0.01% BSA, 1 mM DTT in a 384-well microplate (Corning™ #3640) at RT, giving the final reaction conditions: 5 nM AXL, 1 nM TYRO3 or MER, 800 nM TK Substrate-biotin and 700 μM ATP in 50 mM HEPES, pH 7.4, 10 mM MgCl2, 0.01% BSA, 1 mM DTT and 1% DMSO with varying concentrations of compounds. Following 2 h incubation at RT, the AXL, TYRO3 and MER enzymatic reaction was stopped by transfer of 10 μl of reaction into 10 μl of detection mix (400 nM Streptavidin-XL665, 200-fold dilution TK Antibody-Cryptate and detection buffer, HTRF® KinEASE-TK kit, Cisbio) in a white 384-well microplate (Perkin Elmer, OptiPlate 384). After 1 h incubation at RT, the plate was put into a plate reader (Evision) to read at 665/620 nm (acceptor/donor) for HTRF. The value of the DMSO blank (MIN inhibition=100% activity) was used as a negative control. The positive control was established by adding 5 μl of enzyme and DMSO mixture into 10 μl of detection mix followed by addition of 5 μl of TK Substrate-biotin and ATP mixture (MAX inhibition=0% activity). To calculate the percent activity, Equation 1 was used. Ratio665/620 is the value at a given compound concentration: […]
(In general: In TR-FRET formats the signal depends on donor and acceptor labels being close together.)

pIC50: −log10 of the molar value.

`C[C@@H]1CCCN1[C@@]1(C)CCc2ccc(-c3cnc4[nH]nc(-c5ccc(-c6ncccc6C#N)cc5)c4c3)cc2CC1` [Example 66, 2-(4-{5-[(7S)-7-Methyl-7-[(2R)-2-methylpyrrolidin-1-yl]-6,7,8,9-tetrahydro-5H-benzo[7]annulen-2-yl]-1H-pyrazolo[3,4-b]pyridin-3-yl}phenyl)pyridine-3-carbonitrile]: the pIC50 at p-AXL and against Axl was over 7.00 each time.
Turning to `Cc1cccnc1-c1ccc(-c2n[nH]c3ncc(-c4ccc5c(c4)CC(N4CCCC4)CC5)cc23)cc1` (centres unmarked) [Example 67, 3-Methyl-2-(4-{5-[7-(pyrrolidin-1-yl)-5,6,7,8-tetrahydronaphthalen-2-yl]-1H-pyrazolo[3,4-b]pyridin-3-yl}phenyl)pyridine], the pIC50 was 6.00 to 7.00 on p-AXL and over 7.00 against Axl.
The corresponding values for `Cc1cnc(C)c(-c2ccc(-c3c[nH]c4ncc(-c5ccc6c(c5)CC[C@@](C)(N5CCC[C@H]5C)CC6)cc34)nc2)n1` [Example 68, 2,5-Dimethyl-3-(6-{5-[(7S)-7-methyl-7-[(2R)-2-methylpyrrolidin-1-yl]-6,7,8,9-tetrahydro-5H-benzo[7]annulen-2-yl]-1H-pyrrolo[2,3-b]pyridin-3-yl}pyridin-3-yl)pyrazine] are over 7.00 and over 7.00.
In the same order, the values of `Cc1cnc(C)c(-c2ccc(-c3c[nH]c4ncc(-c5ccc6c(c5)CC[C@@H](N5C7COCC5C7)CC6)cc34)nc2)n1` [Example 69, 6-[(7S)-2-{3-[5-(3,6-Dimethylpyrazin-2-yl)pyridin-2-yl]-1H-pyrrolo[2,3-b]pyridin-5-yl}-6,7,8,9-tetrahydro-5H-benzo[7]annulen-7-yl]-3-oxa 6-azabicyclo[3.1.1]heptane] are 6.00 to 7.00 and over 7.00.
Regarding `Cc1ccc(C#N)c(-c2ccc(-c3n[nH]c4ncc(-c5ccc6c(c5)CC[C@@H](N5C7COCC5C7)CC6)cc34)cc2)n1` [Example 70, 6-Methyl-2-(4-{5-[(7S)-7-{3-oxa-6-azabicyclo[3.1.1]heptan-6-yl}-6,7,8,9-tetrahydro-5H-benzo[7]annulen-2-yl]-1H-pyrazolo[3,4-b]pyridin-3-yl}phenyl)pyridine-3-carbonitrile], the pIC50 against p-AXL and against Axl was over 7.00 each time.
Take `Cc1ccc(C#N)c(-c2ccc(-c3n[nH]c4ncc(-c5ccc6c(c5)CC[C@@](C)(N5CCC[C@H]5C)CC6)cc34)cc2)n1` [Example 71, 6-Methyl-2-(4-{5-[(7S)-7-methyl-7-[(2R)-2-methylpyrrolidin-1-yl]-6,7,8,9-tetrahydro-5H-benzo[7]annulen-2-yl]-1H-pyrazolo[3,4-b]pyridin-3-yl}phenyl)pyridine-3-carbonitrile]: the negative logarithm of the IC50 (pIC50) against p-AXL and at Axl was over 7.00 in each case.
Regarding `Cc1ccc(C#N)c(-c2ccc(-c3c[nH]c4ncc(-c5ccc6c(c5)CC[C@@H](N5C7COCC5C7)CC6)cc34)cc2)n1` [Example 72, 6-Methyl-2-(4-{5-[(7S)-7-{3-oxa-6-azabicyclo[3.1.1]heptan-6-yl}-6,7,8,9-tetrahydro-5H-benzo[7]annulen-2-yl]-1H-pyrrolo[2,3-b]pyridin-3-yl}phenyl)pyridine-3-carbonitrile], the values for the pIC50 at p-AXL and against Axl were 6.00 to 7.00 and over 7.00, respectively.
As to `Cc1ccc(-c2ccc(-c3c[nH]c4ncc(-c5ccc6c(c5)CC[C@@H](N5C7COCC5C7)CC6)cc34)cc2)c(C)n1` [Example 73, 6-[(7S)-2-{3-[4-(2,6-Dimethylpyridin-3-yl)phenyl]-1H-pyrrolo[2,3-b]pyridin-5-yl}-6,7,8,9-tetrahydro-5H-benzo[7]annulen-7-yl]-3-oxa-6-azabicyclo[3.1.1]heptane], the results for the pIC50 at p-AXL and on Axl were 6.00 to 7.00 and over 7.00, respectively.
The corresponding values for `Cc1ncccc1-c1ccc(-c2c[nH]c3ncc(-c4ccc5c(c4)CC[C@@H](N4C6COCC4C6)CC5)cc23)cc1` [Example 74, 6-[(7S)-2-{3-[4-(2-Methylpyridin-3-yl)phenyl]-1H-pyrrolo[2,3-b]pyridin-5-yl}-6,7,8,9-tetrahydro-5H-benzo[7]annulen-7-yl]-3-oxa-6-azabicyclo[3.1.1]heptane] are 6.00 to 7.00 and over 7.00.
The corresponding values for `Cc1ccc(C#N)nc1-c1ccc(-c2c[nH]c3ncc(-c4ccc5c(c4)CC[C@@H](N4C6COCC4C6)CC5)cc23)cc1` [Example 75, 5-Methyl-6-(4-{5-[(7S)-7-{3-oxa-6-azabicyclo[3.1.1]heptan-6-yl}-6,7,8,9-tetrahydro-5H-benzo[7]annulen-2-yl]-1H-pyrrolo[2,3-b]pyridin-3-yl}phenyl)pyridine-2-carbonitrile] are over 7.00 and over 7.00.
In the same order, the values of `Cc1ccc(C(N)=O)nc1-c1ccc(-c2c[nH]c3ncc(-c4ccc5c(c4)CC[C@@H](N4C6COCC4C6)CC5)cc23)cc1` [Example 76, 5-Methyl-6-(4-{5-[(7S)-7-{3-oxa-6-azabicyclo[3.1.1]heptan-6-yl}-6,7,8,9-tetrahydro-5H-benzo[7]annulen-2-yl]-1H-pyrrolo[2,3-b]pyridin-3-yl}phenyl)pyridine-2-carboxamide] are over 7.00 and over 7.00.
`Cc1cccnc1-c1cccc(-c2n[nH]c3ncc(-c4ccc5c(c4)CC[C@@H](N4C6COCC4C6)CC5)cc23)c1` [Example 81, 6-[(7S)-2-{3-[3-(3-Methylpyridin-2-yl)phenyl]-1H-pyrazolo[3,4-b]pyridin-5-yl}-6,7,8,9-tetrahydro-5H-benzo[7]annulen-7-yl]-3-oxa-6-azabicyclo[3.1.1]heptane]: the pIC50 against p-AXL and against Axl was over 7.00 throughout.
In the case of `Cc1cccnc1-c1cccc(-c2c[nH]c3ncc(-c4ccc5c(c4)CC[C@@H](N4C6COCC4C6)CC5)cc23)c1` [Example 82, 6-[(7S)-2-{3-[3-(3-Methylpyridin-2-yl)phenyl]-1H-pyrrolo[2,3-b]pyridin-5-yl}-6,7,8,9-tetrahydro-5H-benzo[7]annulen-7-yl]-3-oxa-6-azabicyclo[3.1.1]heptane], the pIC50 against p-AXL and on Axl was over 7.00 each time.
